Values quoted from earlier work as cited in patent US20150325856A1, “ENVIRONMENTALLY FRIENDLY INKJET-PRINTABLE LITHIUM BATTERY CATHODE FORMULATIONS, METHODS AND DEVICES” (NEW JERSEY INSTITUTE OF TECHNOLOGY, priority 2014, published 2015).
Where two headings read alike, the source gives them in different places.

Columns and labels:
rabbits [1] = test system: rabbits
rabbits [2] = conditions: Ansell and Fowler, as cited in WHO 2001
rats [3] = conditions: whole body exposure
rats [4] = conditions: heads only
[5] = test system: rats, mice, guinea-pigs and rabbits

SMILES: CN1CCCC1=O [NMP, N-methyl-pyrrolidone]
- Tox. Cat. (dermal LD50) (rats and rabbits; dermal): (Tox. Cat. III-IV)
- Dermal LD50 (rats and rabbits; rats and rabbits, Bartsch et al., as cited in WHO 2001, Wallen 1992): 4000-10,000 mg/kg
- Primary Eye Irritation, recovery (rabbits [1]): recovered after 21 days post dosing
- Primary Eye Irritation (rabbits [1]; causing corneal opacity, iritis and conjunctivitis, Ansell and Fowler, as cited in WHO 2001): Moderate (causing
- Primary Skin Irritation (rabbits [2]): Practically non-
- Inhalation LC50 (rats [3]): (1700 mg/m^3)
- Inhalation LC50 (rats [3]; E. I. DuPont de Nemours & Co. 1977, as cited in WHO 2001): =1.7 mg/L
- Inhalation LC50 (rats [4]): (5100 mg/m^3)
- Inhalation LC50 (rats [4]; BASF, 1988, as cited in WHO 2001): >5.1 µg/mL
- Tox. Cat. (oral LD50) ([5]; oral): (Tox. Cat. III-IV)
- Oral LD50 ([5]; rats, mice, guinea-pigs and rabbits, Ansell and Fowler, 1988, as cited in WHO 2001): 3900 to 7900 mg/kg
